Key:
Assay in all cases: relative viability (nuclei count vs DMSO), 5 days (fraction); higher = more cells survive
AZD5582 + Pemetrexed = compound: C[C@@H](C(=O)N[C@@H](C1CCCCC1)C(=O)N2CCC[C@H]2C(=O)N[C@@H]3[C@@H](CC4=CC=CC=C34)OCC#CC#CCO[C@@H]5CC6=CC=CC=C6[C@@H]5NC(=O)[C@@H]7CCCN7C(=O)[C@H](C8CCCCC8)NC(=O)[C@H](C)NC)NC [AZD5582] + Nc1nc2[nH]cc(CCc3ccc(C(=O)N[C@@H](CCC(=O)O)C(=O)O)cc3)c2c(=O)[nH]1 [Pemetrexed] (partner 0.2 µM)
In short: (§1)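 Nuclei were stained with Hoechst during a one-step fixation (final 0.05% Triton X-100, 1% formaldehyde, 1 ug/ml Hoechst) carried out 5 days after dosing, then counted on 4× images. The cells, lung cancer lines in 1536-well plates, had been dosed by pin tool the day after seeding with one drug alone or a fixed anchor-drug dose plus five library-drug doses (not always all listed) in √10 steps. Relative viability is the nuclei count in treated wells divided by that in vehicle wells, and each value is the median of duplicate plates.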

AZD5582 + Olaparib = compound: C[C@@H](C(=O)N[C@@H](C1CCCCC1)C(=O)N2CCC[C@H]2C(=O)N[C@@H]3[C@@H](CC4=CC=CC=C34)OCC#CC#CCO[C@@H]5CC6=CC=CC=C6[C@@H]5NC(=O)[C@@H]7CCCN7C(=O)[C@H](C8CCCCC8)NC(=O)[C@H](C)NC)NC [AZD5582] + O=C(c1cc(Cc2n[nH]c(=O)c3ccccc23)ccc1F)N1CCN(C(=O)C2CC2)CC1 [Olaparib] (partner 8 µM)
In short: as §1

[1] = compound: Cn1nnc2c(C(N)=O)ncn2c1=O [Temozolomide] + CS(=O)(=O)N1CCN(Cc2cc3nc(-c4cccc5[nH]ncc45)nc(N4CCOCC4)c3s2)CC1 [Pictilisib] (partner 1 µM)
In short: as §1

[2] = compound: Cn1nnc2c(C(N)=O)ncn2c1=O [Temozolomide] + O=C(CCCCCCC(=O)Nc1ccccc1)NO [Vorinostat] (partner 1 µM)
In short: as §1

Cell Line | relative viability (AZD5582 + Pemetrexed; first compound 0.001581 µM) | relative viability (AZD5582 + Pemetrexed; first compound 0.005 µM) | relative viability (AZD5582 + Pemetrexed; first compound 0.01581 µM) | relative viability (AZD5582 + Pemetrexed; first compound 0.05 µM) | relative viability (AZD5582 + Olaparib; first compound 0.001581 µM) | relative viability (AZD5582 + Olaparib; first compound 0.005 µM) | relative viability (AZD5582 + Olaparib; first compound 0.01581 µM) | relative viability (AZD5582 + Olaparib; first compound 0.05 µM) | relative viability ([1]; first compound 0.2 µM) | relative viability ([1]; first compound 0.6325 µM) | relative viability ([1]; first compound 2 µM) | relative viability ([1]; first compound 6.325 µM) | relative viability ([1]; first compound 20 µM) | relative viability ([2]; first compound 0.2 µM) | relative viability ([2]; first compound 0.6325 µM) | relative viability ([2]; first compound 2 µM) | relative viability ([2]; first compound 6.325 µM) | relative viability ([2]; first compound 20 µM)
NCI-H358 | 0.178 | 0.171 | 0.179 | 0.17 | 0.56 | 0.702 | 0.616 | 0.791 | 0.342 | 0.392 | 0.348 | 0.305 | 0.283 | 0.558 | 0.656 | 0.6 | 0.647 | 0.553
NCI-H441 | 0.253 | 0.314 | 0.292 | 0.253 | 0.504 | 0.541 | 0.603 | 0.395 | 0.437 | 0.443 | 0.543 | 0.375 | 0.51 | 0.986 | 0.885 | 0.773 | 0.703 | 0.691
NCI-H460 | 0.0644 | 0.0659 | 0.0592 | 0.059 | 0.36 | 0.411 | 0.345 | 0.413 | 0.326 | 0.318 | 0.472 | 0.272 | 0.309 | 0.67 | 0.694 | 0.706 | 0.709 | 0.685
NCI-H520 | 0.66 | 0.755 | 0.699 | 0.691 | 0.302 | 0.274 | 0.382 | 0.365 | 0.243 | 0.304 | 0.312 | 0.305 | 0.326 | 0.79 | 0.77 | 0.753 | 0.769 | 0.646
NCI-H596 | 0.323 |  | 0.448 | 0.263 | 0.566 |  | 0.802 | 0.252 | 0.421 | 0.404 | 0.411 | 0.385 | 0.384 | 0.683 | 0.652 | 0.58 | 0.585 | 0.689
NCI-H647 | 0.126 | 0.14 | 0.193 | 0.124 | 0.492 | 0.587 | 0.6 | 0.589 | 0.419 | 0.444 | 0.406 | 0.272 | 0.216 | 0.886 | 0.705 | 0.494 | 0.304 | 0.153
NCI-H650 | 0.843 | 0.959 | 0.605 | 0.644 | 0.321 | 0.32 | 0.366 | 0.307 | 0.875 | 0.97 | 0.943 | 0.865 | 0.908 | 0.522 | 0.41 | 0.462 | 0.299 | 0.469
NCI-H661 | 0.915 | 0.899 | 0.98 | 0.904 | 0.7 | 0.758 | 0.787 | 0.737 | 0.313 | 0.371 | 0.39 | 0.388 | 0.39 | 0.862 | 0.789 | 0.849 | 0.783 | 0.691
NCI-H838 | 0.258 | 0.246 | 0.235 | 0.262 | 0.744 | 0.811 | 0.711 | 0.743 | 0.45 | 0.48 | 0.577 | 0.446 | 0.584 | 0.751 | 0.727 | 0.72 | 0.748 | 0.739
NCI-H1355 | 0.942 | 1 | 0.986 | 0.815 | 0.68 | 0.728 | 0.658 | 0.774 | 0.433 | 0.46 | 0.427 | 0.38 | 0.39 | 0.6 | 0.638 | 0.638 | 0.624 | 0.583
NCI-H1395 | 0.852 | 0.964 |  | 1.13 | 0.445 | 0.433 |  | 0.464 | 0.554 | 0.631 | 0.719 | 0.612 | 0.572 | 0.901 | 0.837 | 0.663 | 0.569 | 0.673
NCI-H1437 | 0.337 | 0.294 | 0.263 | 0.326 | 0.711 | 0.649 | 0.648 | 0.623 | 0.474 | 0.539 | 0.502 | 0.521 | 0.44 | 0.748 | 0.748 | 0.915 | 0.831 | 0.92
NCI-H1650 | 0.385 | 0.396 | 0.362 | 0.412 | 0.758 | 0.668 | 0.813 | 0.834 | 0.661 | 0.611 | 0.55 | 0.579 | 0.478 | 0.529 | 0.639 | 0.578 | 0.648 | 0.483
NCI-H1651 | 0.507 | 0.562 | 0.52 | 0.638 | 0.175 | 0.183 | 0.18 | 0.163 | 0.567 | 0.681 | 0.654 | 0.588 | 0.613 | 0.582 | 0.49 | 0.628 | 0.499 | 0.613
NCI-H1666 | 0.788 | 0.879 | 0.794 | 0.71 | 0.766 | 0.745 | 0.674 | 0.77 | 0.433 | 0.404 | 0.394 | 0.345 | 0.298 | 1.07 | 1 | 0.94 | 0.794 | 0.868
NCI-H1734 | 0.406 | 0.407 | 0.415 | 0.437 | 0.569 | 0.59 | 0.615 | 0.746 | 0.508 | 0.418 | 0.475 | 0.429 | 0.426 | 0.814 | 0.79 | 0.861 | 0.709 | 0.831
NCI-H1755 | 0.399 | 0.375 | 0.387 | 0.414 | 0.843 | 0.966 | 0.938 | 0.939 | 0.507 | 0.447 | 0.462 | 0.413 | 0.379 | 0.863 | 0.763 | 0.604 | 0.627 | 0.638
